Data on six molecules can be found in publication PMC9234021 (Cell Reports, 2022).

Like-named read-outs stand apart in the source and are kept apart here. No end group written: not given here.

The test system of data set [1] is SARS-CoV-2. The format is cell-based, SARS-CoV-2 isolate USA-WA1/2020. Particulars: p = 0.0001, three independent experiments in duplicate.
The test system of data set [2] is SARS-CoV-2. The format is cell-based, SARS-CoV-2 isolate USA-WA1/2020. Particulars: p = 0.0004, three independent experiments in triplicate.
Data set [3] deals with SARS-CoV-2. The format is in vivo, K18-hACE2 C57BL/6J mice. Particulars: JQ1 50 mg/kg i.p. or ABBV-744 20 mg/kg oral once daily, n = 5 per group.
The subject of data set [4] is SARS-CoV-2 nucleocapsid (N) protein. It is filed as in vivo, K18-hACE2 C57BL/6J mice. Particulars: JQ1 50 mg/kg i.p. or ABBV-744 20 mg/kg oral once daily.
In data set [5] the test system is lungs of SARS-CoV-2 infected mice. The arrangement: species or system K18-hACE2 C57BL/6J mice. Particulars: mouse, in vivo.
For data set [6], the system named is SARS-CoV-2. The arrangement: species or system K18-hACE2 C57BL/6J mice. To be noted: mouse, in vivo.
The conditions of data set [7]: identical treatment with JQ1 or ABBV-744, H&E.
The test system of a further data set is BET proteins. To be noted: cited from earlier work.
The subject of data set [8] is SARS-CoV-2. Particulars: mouse, in vivo; cited from earlier work.
Data set [9] has as its system Calu3 cells. The format is cell-based.
The subject of another data set is A549 cells. Nature of the data set: qRT-PCR of poly. The format is cell-based.
For the next data set, the system named is influenza A. Particulars: cited from earlier work.
In the next data set the test system is A549-ACE2 cells. Nature of the data set: Cell viability. It is filed as cell-based. Particulars: A549-ACE2, 500 nM, 48 hours, CellTiter-Glo, relative to DMSO. (ATP-based viability assays read luminescence as a measure of living cells.)
The test system of data set [10] is Calu3 cells. Nature of the data set: Cell viability. The format is cell-based. To be noted: Calu3, 500 nM, 48 hours, CellTiter-Glo, relative to DMSO.
For data set [11], the target named is BRD4 second bromodomain BD2 (349-460), His-SUMO tag removed (UniProt O60885 349-460, 15N-labeled). Nature of the data set: NMR titration.
Where [12] appears, read: pan-BET inhibitors, no reference given.

With `CCNC(=O)c1cc2c(-c3cc(C(C)(C)O)ccc3Oc3c(C)cc(F)cc3C)cn(C)c(=O)c2[nH]1` [ABBV-744, N-Ethyl-4-[2-(4-fluoro-2,6-dimethyl-phenoxy)-5-(1-hydroxy-1-methyl-ethyl)phenyl]-6-methyl-7-oxo-1H-pyrrolo[2,3-c]pyridine-2-carboxamide], the “increase in infectious particle production” value with SARS-CoV-2 [1] is reported as 3 fold. Further, the “increase in SARS-CoV-2 viral RNA” value in the data set with SARS-CoV-2 [2] was 3 fold. In addition, the “increase in infectious particle production in lungs” value with SARS-CoV-2 [3] turned out to be 37 fold. For the same molecule, the “immunohistochemical staining for SARS-CoV-2 N protein in lungs” value in [4] is reported as “increased”. Besides, in data set [5], the “CCL2 expression in lungs” value is reported as “significant decreases”, the “CXCL9 expression in lungs” value is recorded as “significant decreases”, the “CXCL10 expression in lungs” value is “significant decreases” and the “IL1a expression in lungs” value is “significant decreases”. In data set [5], the “IL6 expression in lungs” value was “significant decreases”, the “ISG15 expression in lungs” value is “significant decreases” and the “RIG-I expression in lungs” value is “significant decreases”. Also, in the data set with SARS-CoV-2 [6], the “immune cell infiltration in the lungs” value was “decrease in immune cell infiltration”. Also, the “lung inflammation in healthy, uninfected mice” value in [7] is given as “did not experience lung inflammation”. In addition, the bromodomain specificity entry in the data set with BET proteins (ABBV-744, ref Sheppard et al., 2020) is “specifically targets BD2-mediated interactions”.

As for `Cc1noc(C)c1-c1ccc2[nH]c(=O)n3c2c1OC[C@@H]3c1ccccn1` [INCB054329], in the data set on SARS-CoV-2 [8], the lung pathology entry is reported as “severe lung pathology” and the “viral RNA in the lungs” value is “significant viral RNA in the lungs”.

With `Cc1sc2c(c1C)C(c1ccc(Cl)cc1)=N[C@@H](CC(=O)OC(C)(C)C)c1nnc(C)n1-2` [JQ1], in the data set on Calu3 cells [9], the IFNB1 expression entry is listed as “suppressed”, the IL6 expression entry was “suppressed” and the ISG15 expression result is “suppressed”. Further, in the data set on A549 cells, the “poly(I:C)-mediated induction of IFNB1” value is listed as “dampened”, the “poly(I:C)-mediated induction of IL6” value is “dampened” and the “poly(I:C)-mediated induction of ISG15” value is on record as “dampened”. In addition, in the data set on SARS-CoV-2 [3], the “increase in infectious particle production in lungs” value was found to be 18 fold. In [4], the “immunohistochemical staining for SARS-CoV-2 N protein in lungs” value is “increased”. In [5], the “CCL2 expression in lungs” value is “significant decreases”, the “CXCL9 expression in lungs” value is recorded as “significant decreases”, the “CXCL10 expression in lungs” value was “significant decreases” and the “IL1a expression in lungs” value is “significant decreases”. Further, in data set [5], the “IL6 expression in lungs” value is reported as “significant decreases”, the “ISG15 expression in lungs” value is “significant decreases” and the “RIG-I expression in lungs” value is reported as “significant decreases”. The “immune cell infiltration in the lungs” value with SARS-CoV-2 [6] is recorded as “decrease in immune cell infiltration”. Further, in data set [7], the “lung inflammation in healthy, uninfected mice” value is listed as “did not experience lung inflammation”. Further, in the data set on influenza A, the “transcriptional activation of the antiviral response” value is “attenuates transcriptional activation of the antiviral response”. In addition, in the data set with BET proteins (setting [12]), the bromodomain specificity entry was “disrupt BD1- and BD2-mediated interactions”.

As for `Cc1sc2c(c1C)C(c1ccc(Cl)cc1)=N[C@@H](CC(=O)NCCCCCCCCNC(=O)COc1cccc3c1C(=O)N(C1CCC(=O)NC1=O)C3=O)c1nnc(C)n1-2` (stereo partly shown) [dBET6], the viability entry in the data set with A549-ACE2 cells was “non-toxic”. In the data set on Calu3 cells [10], the viability entry is “non-toxic”. In the data set on Calu3 cells [9], the IFNB1 expression result is given as “suppressed”, the IL6 expression result is “suppressed” and the ISG15 expression entry was “suppressed”. Also, in the data set on A549 cells, the “poly(I:C)-mediated induction of IFNB1” value was “dampened”, the “poly(I:C)-mediated induction of IL6” value was “dampened” and the “poly(I:C)-mediated induction of ISG15” value is reported as “dampened”. Also, the bromodomain specificity result in the data set on BET proteins (setting [12]) is “disrupt BD1- and BD2-mediated interactions”.

As a reminder, the Kd is the free concentration of one partner at which half of the binding sites on the other are occupied at equilibrium, for simple one-to-one binding. A low value points to higher affinity. In turn, VYSRVK(Ac)NLNSS [SARS-CoV-2 E peptide, residues 58-68, acetylated at K63] came in with a Kd in data set [11] of 170 ± 60 µM.

For the molecule NVSLVK(Ac)PSFYV [SARS-CoV-2 E peptide, residues 48-58, acetylated at K53], binding in data set [11] was put at a Kd of 610 ± 160 µM.
